Literature values as cited in publication PMC11881343, “Safety of ilunocitinib tablets (Zenrelia™) after once daily oral administration in dogs” (BMC Veterinary Research, 2025).

How the values were obtained:
[1] = test system: human patients with rheumatoid arthritis; design: method as in PMID 31362993; conditions: human medicine; cited from earlier work
JAK3 = test system: JAK3; design: method as in PMID 32413585; conditions: cited from earlier work
[2] = test system: peripheral blood leukocytes; conditions: rheumatoid arthritis patients in phase III clinical trials; cited from earlier work
dogs = conditions: cited from earlier work

| SMILES | effect on hemoglobin [1] | potency against JAK3 (JAK3) | changes in lymphocytes subsets populations [2] | Weight gain in dogs (dogs; dogs) | Papillomas in dogs (dogs; resorbed spontaneously) |
| --- | --- | --- | --- | --- | --- |
| CCS(=O)(=O)N1CC(CC#N)(n2cc(-c3ncnc4[nH]ccc34)cn2)C1 [baricitinib] | initial decrease in hemoglobin within the normal range followed by a slight increase | significantly lower potency against JAK3 | minimal and reversible changes | – | – |
| CNS(=O)(=O)C[C@H]1CC[C@H](N(C)c2ncnc3[nH]ccc23)CC1 [oclacitinib] | – | – | – | Weight gain has been reported | Papillomas were also observed |
| CC[C@@H]1CN(C(=O)NCC(F)(F)F)C[C@@H]1c1cnc2cnc3[nH]ccc3n12 [upadacitinib] | limited impact on hemoglobin | – | – | – | – |
